From patent US20110009381A1, “SOLUBILIZED THIAZOLOPYRIDINES” (Sirtis Pharmaceuticals, Inc., priority 2007, published 2011)

molecular target: T1, SIRT1 (Homo sapiens, UniProt Q96EB6); assay: Mass spectrometry based assay to identify modulators of SIRT1 activity (deacetylation of p53-based acetylated peptide substrate); type: biochemical; details: 10 nM SIRT1, 0.5 μM peptide substrate, 120 μM βNAD+, 25 minutes at 25° C.
T1 sequence (Q96EB6 1-747): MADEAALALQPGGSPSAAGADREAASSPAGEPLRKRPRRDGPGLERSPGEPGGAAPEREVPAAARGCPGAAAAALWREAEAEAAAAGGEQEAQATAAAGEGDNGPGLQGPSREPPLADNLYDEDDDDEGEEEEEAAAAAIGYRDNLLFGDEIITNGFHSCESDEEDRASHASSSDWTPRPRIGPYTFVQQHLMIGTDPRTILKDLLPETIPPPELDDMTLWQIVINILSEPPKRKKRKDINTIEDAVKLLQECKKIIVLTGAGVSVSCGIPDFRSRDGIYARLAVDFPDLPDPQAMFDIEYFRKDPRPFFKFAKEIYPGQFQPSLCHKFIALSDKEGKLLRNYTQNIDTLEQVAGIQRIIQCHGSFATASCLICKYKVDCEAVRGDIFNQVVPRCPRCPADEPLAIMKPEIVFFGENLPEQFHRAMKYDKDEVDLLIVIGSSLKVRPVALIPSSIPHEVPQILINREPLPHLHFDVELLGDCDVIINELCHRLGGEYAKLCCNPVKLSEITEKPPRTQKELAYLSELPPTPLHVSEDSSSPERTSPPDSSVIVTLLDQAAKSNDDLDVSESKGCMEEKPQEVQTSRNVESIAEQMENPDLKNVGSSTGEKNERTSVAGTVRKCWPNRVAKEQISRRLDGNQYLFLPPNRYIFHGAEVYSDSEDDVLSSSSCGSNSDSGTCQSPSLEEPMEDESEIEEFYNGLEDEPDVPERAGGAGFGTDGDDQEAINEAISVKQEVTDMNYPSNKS
Outline: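 Activation measured on His-tagged SIRT1 (10 nM, E. coli-expressed) deacetylating a 0.5 μM p53-derived acetyl-peptide with 120 μM βNAD^+ for 25 min at 25 °C, pH 8 Tris-acetate. After formic acid stop, mass spectrometry quantified acetylated versus deacetylated peptide, referenced to DMSO and nicotinamide controls. Reported as EC1.5 and maximum fold activation.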

FOLD ACT. (percent maximum fold activation), B (Fold Activation≧150% and <300%):
CS(=O)(=O)NCCOc1cc(C(=O)Nc2ccccc2-c2nc3cccnc3s2)nc(-c2ccccc2)n1 [Compound 122]

FOLD ACT. (percent maximum fold activation), C (Fold Activation<150%):
O=C(Nc1ccccc1-c1nc2cccnc2s1)c1cc(NC2CCN(c3ccccn3)CC2)nc(-c2ccccc2)n1 [Compound 115]

FOLD ACT. (percent maximum fold activation), A (Fold activation≧300%):
CC(=O)N1CCC(Nc2cc(C(=O)Nc3ccccc3-c3nc4cccnc4s3)nc(-c3ccccc3)n2)CC1 [Compound 116]
CC(C)C(=O)N1CCC(Nc2cc(C(=O)Nc3ccccc3-c3nc4cccnc4s3)nc(-c3ccccc3)n2)CC1 [Compound 117]
O=C(Nc1ccccc1-c1nc2cccnc2s1)c1cc(NC2CCN(C3CC3)CC2)nc(-c2ccccc2)n1 [Compound 118]
O=C(Nc1ccccc1-c1nc2cccnc2s1)c1cc(N2CCNCC2)cc(-c2ccccc2)n1 [Compound 119]
O=C(Nc1ccccc1-c1nc2cccnc2s1)c1cc(N2CCN3CCC[C@H]3C2)nc(-c2ccccc2)n1 [Compound 120]
CNCCNc1cc(C(=O)Nc2ccccc2-c2nc3cccnc3s2)nc(-c2ccccc2)n1 [Compound 121]
CC(C)N1CCN(c2cc(C(=O)Nc3ccccc3-c3nc4cccnc4s3)nc(-c3ccccc3)c2)CC1 [Compound 123]
COCCN1CCN(c2cc(C(=O)Nc3ccccc3-c3nc4cccnc4s3)nc(-c3ccccc3)c2)CC1 [Compound 124]
CC(C)(C)N1CCC(Nc2cc(C(=O)Nc3ccccc3-c3nc4cccnc4s3)nc(-c3ccccc3)n2)CC1 [Compound 125]
O=C(Nc1ccccc1-c1nc2cccnc2s1)c1cc(OC[C@H](O)CO)cc(-c2ccccc2)n1 [Compound 126]
O=C(Nc1ccccc1-c1nc2cccnc2s1)c1cc(OC[C@@H](O)CO)cc(-c2ccccc2)n1 [Compound 127]
O=C(Nc1ccccc1-c1nc2cccnc2s1)c1cc(NC(CO)CO)cc(-c2ccccc2)n1 [Compound 128]
O=C(Nc1ccccc1-c1nc2cccnc2s1)c1cc(N2CCOCC2)cc(-c2ccccc2)n1 [Compound 129]
COCCN(CCOC)c1cc(C(=O)Nc2ccccc2-c2nc3cccnc3s2)nc(-c2ccccc2)c1 [Compound 130]
COCCNc1cc(C(=O)Nc2ccccc2-c2nc3cccnc3s2)nc(-c2ccccc2)c1 [Compound 131]
Cc1cccc(-c2nc(NCCN3CCCCC3)cc(C(=O)Nc3ccccc3-c3nc4cccnc4s3)n2)c1 [Compound 132]
Cc1cccc(-c2nc(NCCN3CCOCC3)cc(C(=O)Nc3ccccc3-c3nc4cccnc4s3)n2)c1 [Compound 133]
Cc1cccc(-c2nc(NC(CO)CO)cc(C(=O)Nc3ccccc3-c3nc4cccnc4s3)n2)c1 [Compound 134]

same assay, conditions: SIRT1 activation; 10 nM SIRT1, 0.5 μM peptide substrate, 120 μM βNAD+, 25 minutes at 25° C.

EC1.5, A′ (EC1.5<250 nM):
CC(=O)N1CCC(Nc2cc(C(=O)Nc3ccccc3-c3nc4cccnc4s3)nc(-c3ccccc3)n2)CC1 [Compound 116]
CC(C)C(=O)N1CCC(Nc2cc(C(=O)Nc3ccccc3-c3nc4cccnc4s3)nc(-c3ccccc3)n2)CC1 [Compound 117]
O=C(Nc1ccccc1-c1nc2cccnc2s1)c1cc(NC2CCN(C3CC3)CC2)nc(-c2ccccc2)n1 [Compound 118]
O=C(Nc1ccccc1-c1nc2cccnc2s1)c1cc(N2CCNCC2)cc(-c2ccccc2)n1 [Compound 119]
CNCCNc1cc(C(=O)Nc2ccccc2-c2nc3cccnc3s2)nc(-c2ccccc2)n1 [Compound 121]
CC(C)N1CCN(c2cc(C(=O)Nc3ccccc3-c3nc4cccnc4s3)nc(-c3ccccc3)c2)CC1 [Compound 123]
COCCN1CCN(c2cc(C(=O)Nc3ccccc3-c3nc4cccnc4s3)nc(-c3ccccc3)c2)CC1 [Compound 124]
CC(C)(C)N1CCC(Nc2cc(C(=O)Nc3ccccc3-c3nc4cccnc4s3)nc(-c3ccccc3)n2)CC1 [Compound 125]
O=C(Nc1ccccc1-c1nc2cccnc2s1)c1cc(OC[C@H](O)CO)cc(-c2ccccc2)n1 [Compound 126]
O=C(Nc1ccccc1-c1nc2cccnc2s1)c1cc(NC(CO)CO)cc(-c2ccccc2)n1 [Compound 128]
O=C(Nc1ccccc1-c1nc2cccnc2s1)c1cc(N2CCOCC2)cc(-c2ccccc2)n1 [Compound 129]
COCCN(CCOC)c1cc(C(=O)Nc2ccccc2-c2nc3cccnc3s2)nc(-c2ccccc2)c1 [Compound 130]
COCCNc1cc(C(=O)Nc2ccccc2-c2nc3cccnc3s2)nc(-c2ccccc2)c1 [Compound 131]
Cc1cccc(-c2nc(NCCN3CCCCC3)cc(C(=O)Nc3ccccc3-c3nc4cccnc4s3)n2)c1 [Compound 132]
Cc1cccc(-c2nc(NCCN3CCOCC3)cc(C(=O)Nc3ccccc3-c3nc4cccnc4s3)n2)c1 [Compound 133]
Cc1cccc(-c2nc(NC(CO)CO)cc(C(=O)Nc3ccccc3-c3nc4cccnc4s3)n2)c1 [Compound 134]

EC1.5, C (EC1.5>10 uM):
O=C(Nc1ccccc1-c1nc2cccnc2s1)c1cc(NC2CCN(c3ccccn3)CC2)nc(-c2ccccc2)n1 [Compound 115]

EC1.5, A (EC1.5≧250 nM and ≦1 uM):
O=C(Nc1ccccc1-c1nc2cccnc2s1)c1cc(N2CCN3CCC[C@H]3C2)nc(-c2ccccc2)n1 [Compound 120]
CS(=O)(=O)NCCOc1cc(C(=O)Nc2ccccc2-c2nc3cccnc3s2)nc(-c2ccccc2)n1 [Compound 122]
O=C(Nc1ccccc1-c1nc2cccnc2s1)c1cc(OC[C@@H](O)CO)cc(-c2ccccc2)n1 [Compound 127]
